Laboratory results published in patent US20160045487A1, “COMPOSITIONS AND METHODS FOR TREATING NEUROPATHY” (CHILDEREN'S MEDICAL CENTER CORPORATION, priority 2013, published 2016).

Legend:
GFAP-DN-erbB4 mice = assay: Electron microscopy of sciatic nerve Remak bundles, GFAP-DN-erbB4 mice; type: in vivo, mouse
Protocol: As a first test, a cream containing XIB4035 (1.5 mM) was applied directly to the hind paws of GFAP-DN-erbB4 and wild type mice twice daily for a period of 4 weeks starting prior to symptom onset (P21). Mice of both genotypes were also treated with the base cream containing no drug for control. Mice were tested for responses to a noxious thermal stimulus prior to the initiation of treatment and every 7 days for the duration of the experiment.
The cream containing XIB4035 (1.5 mM, ZereneX Molecular Ltd., Manchester, UK) consisted of N-methyl-pyrrolidone (6.25%), isopropyl myristate (6.25%) and petroleum jelly (87.5%). Control cream had the same ingredients without XIB4035. Cream was applied twice daily to the hind paws of mice starting at P21 for a period of 4 weeks for prophylactic treatment of GFAP-DN-erbB4. Diabetic mice were treated twice daily for 8 weeks after streptozotocin (STZ) injection prior to onset of hyperglycemia and for another 8 weeks during neuropathy testing. Cream treatment in therapeutic studies using GFAP-DN-erbB4 mice was performed twice daily beginning after onset of SFN at P28 and either continued for 5 weeks (chronic treatment) or 1 week (acute treatment).
Tissue was prepared as in (Lacomis, supra). Briefly, mice were perfused intracardially with 2% paraformaldehyde, 2.5% gluteraldehyde and 0.03% picric acid in 0.1 M cacodylate buffer (pH 7.2). Tissue was post-fixed overnight at 4° C. and embedded in Epon. Ultrathin sections were cut, collected on cellodin-coated grids and stained using uranyl acetate and lead citrate. Photographs were taken using the Tecnai G2 Spirit BioTWIN transmission electron microscope.

[1] = tested on: mutant and wild type mice; assay: Observation for side effects of chronic topical treatment; type: in vivo, mouse; settings: treated twice a day for 7 weeks
Excerpt: Importantly, given the potential need for chronic application of XIB4035, the question of whether XIB4035 produces side effects in both mutant and wild type mice was examined.

RET = molecular target: T1, RET (Homo sapiens, UniProt P07949+P56159); assay: RET phosphorylation phospho-tyrosine Western blot in SH-SY5Y cells; type: cell-based
T1 construct: endogenous in cells; host or cells: SH-SY5Y (SH-SY5Y-THpGL3) human neuroblastoma cells
Excerpt: One goal of these studies was to determine if XIB4035 could be used for treating SFN in humans. Using the Neuro2A (N2A) murine neuroblastoma cell line, Tokugawa et al. (supra) reported XIB4035 as a competitive agonist for the GDNF receptor GFRα1 that activates the RET receptor. Since populations of DRG sensory neurons express different GFRα receptors, thus making them preferentially responsive to the particular ligands, it was important to determine if XIB4035 was specific to GFRα1 or could act on other family members. Since PSPN has no effect on peripheral sensory neurons, the GFRα1, GFRα2, and GFRα3 receptors were the focus of these studies. The SH-SY5Y, a human neuroblastoma cell line expressing mRNA for GFRα1, GFRα2, and GFRα3, was used to perform two cell-based assays; immunoblots measuring RET phosphorylation and a luciferase reporter assay using the tyrosine hydroxylase (TH) promoter. For the latter two paradigms were used, either overnight treatment immediately followed by luciferase activity measurements or 10 minute treatments followed by washout and overnight incubation prior to measurements. GDNF and ARTN induced robust TH-luciferase activity in a dose dependent manner (FIG. 3E). Because the responses to GDNF and ARTN were more robust, these two factors were chosen for further analysis.
Since the original report argued that XIB4035 displaces GDNF binding to GFRα1 expressing cells (FIG. 2 in Tokugawa et al., Neurochem Int 42, 81-86 (2003).), potentially ARTN, on TH-luciferase activity and Ret phosphorylation. […] In this experiment, cells were treated with GDNF or ARTN with or without XIB4035 for 10 minutes and cell lysates were either collected immediately or treatment was washed out and replaced with growth media for 30, 60, or 120 minutes. […] Therefore, we tested cells expressing only one GFRα using either N2A cells (which express RET) transfected with GFRα1 or GFRα3 expression constructs, or B(E)2-C cells, which express only GFRα2 together with RET. […]

GFRα2/RET = molecular target: T2, GFRα2/RET (Homo sapiens, UniProt O00451+P07949); assay: NRTN/GFRα2-induced RET phosphorylation in B(E)2-C cells; type: cell-based; settings: 2 nM NRTN with 20 μM XIB4035, 10 minutes, then 60 minutes growth medium
T2 construct: B(E)2-C cells, which express only GFRα2 together with RET; endogenous in cells; host or cells: B(E)2-C / BE(2)-C cells
Protocol: B(E)2-C cells, which express GFRα2, were treated under different conditions (no treatment, 2 nM NRTN, or 2 nM NRTN with 20 μM XIB4035) for 10 minutes. Cells were either lysed immediately or after incubation in growth medium for an additional 60 minutes.
Since the original report argued that XIB4035 displaces GDNF binding to GFRα1 expressing cells (FIG. 2 in Tokugawa et al., Neurochem Int 42, 81-86 (2003).), potentially ARTN, on TH-luciferase activity and Ret phosphorylation. […] In this experiment, cells were treated with GDNF or ARTN with or without XIB4035 for 10 minutes and cell lysates were either collected immediately or treatment was washed out and replaced with growth media for 30, 60, or 120 minutes. […] Therefore, we tested cells expressing only one GFRα using either N2A cells (which express RET) transfected with GFRα1 or GFRα3 expression constructs, or B(E)2-C cells, which express only GFRα2 together with RET. […] The GFRα1 or GFRα3 transfected N2A cells were then treated with XIB4035 alone, the appropriate ligand for the expressed receptor alone, or XIB4035 and ligand in combination for 10 minutes, and collected lysates immediately after treatment or 60 minutes after washout. […] Similar results were obtained with GFRα2 and NRTN using B(E)2-C cells (FIG. 8). […]

[2] = GFAP-DN-erbB4 mice, XIB4035 cream 4 weeks

T1 sequence (P07949 29-1114): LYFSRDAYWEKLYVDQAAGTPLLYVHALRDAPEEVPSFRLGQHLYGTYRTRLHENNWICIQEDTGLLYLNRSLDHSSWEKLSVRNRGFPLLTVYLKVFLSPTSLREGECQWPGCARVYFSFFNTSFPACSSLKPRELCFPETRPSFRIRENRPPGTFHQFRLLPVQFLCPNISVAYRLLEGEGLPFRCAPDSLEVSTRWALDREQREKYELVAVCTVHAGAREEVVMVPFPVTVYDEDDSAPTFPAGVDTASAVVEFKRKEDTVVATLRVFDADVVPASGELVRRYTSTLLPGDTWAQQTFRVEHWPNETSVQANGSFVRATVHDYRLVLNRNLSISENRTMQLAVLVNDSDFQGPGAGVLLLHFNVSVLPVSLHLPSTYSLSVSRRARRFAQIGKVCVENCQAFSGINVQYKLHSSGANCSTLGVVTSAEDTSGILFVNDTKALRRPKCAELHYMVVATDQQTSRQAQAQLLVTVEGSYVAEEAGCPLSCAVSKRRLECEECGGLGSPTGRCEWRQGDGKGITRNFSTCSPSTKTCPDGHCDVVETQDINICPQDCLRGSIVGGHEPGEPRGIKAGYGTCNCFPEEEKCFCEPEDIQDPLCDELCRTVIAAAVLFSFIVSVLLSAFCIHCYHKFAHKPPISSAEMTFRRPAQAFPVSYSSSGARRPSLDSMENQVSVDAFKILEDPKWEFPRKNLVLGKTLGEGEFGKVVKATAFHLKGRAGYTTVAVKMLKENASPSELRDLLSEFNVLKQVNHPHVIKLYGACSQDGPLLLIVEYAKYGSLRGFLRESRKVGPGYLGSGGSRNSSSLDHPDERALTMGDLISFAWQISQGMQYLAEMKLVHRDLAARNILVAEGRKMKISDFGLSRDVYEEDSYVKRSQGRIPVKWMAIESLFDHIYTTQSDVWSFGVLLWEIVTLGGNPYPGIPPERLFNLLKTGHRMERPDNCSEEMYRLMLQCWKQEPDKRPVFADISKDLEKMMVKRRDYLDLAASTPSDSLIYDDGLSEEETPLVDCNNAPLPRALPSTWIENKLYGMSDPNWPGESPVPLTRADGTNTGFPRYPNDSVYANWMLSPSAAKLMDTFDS
T1 sequence (P56159 25-429 limits assumed): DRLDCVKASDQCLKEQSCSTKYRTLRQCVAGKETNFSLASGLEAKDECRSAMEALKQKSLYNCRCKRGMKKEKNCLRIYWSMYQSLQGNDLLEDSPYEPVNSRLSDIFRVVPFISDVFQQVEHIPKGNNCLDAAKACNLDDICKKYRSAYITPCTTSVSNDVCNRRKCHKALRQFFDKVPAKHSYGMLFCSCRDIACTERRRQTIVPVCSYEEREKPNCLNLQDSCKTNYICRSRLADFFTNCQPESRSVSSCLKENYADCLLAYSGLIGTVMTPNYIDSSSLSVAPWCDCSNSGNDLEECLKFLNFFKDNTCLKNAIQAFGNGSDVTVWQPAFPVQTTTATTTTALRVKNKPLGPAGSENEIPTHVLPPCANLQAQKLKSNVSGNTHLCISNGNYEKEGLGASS
T2 sequence (O00451 22-444 limits assumed): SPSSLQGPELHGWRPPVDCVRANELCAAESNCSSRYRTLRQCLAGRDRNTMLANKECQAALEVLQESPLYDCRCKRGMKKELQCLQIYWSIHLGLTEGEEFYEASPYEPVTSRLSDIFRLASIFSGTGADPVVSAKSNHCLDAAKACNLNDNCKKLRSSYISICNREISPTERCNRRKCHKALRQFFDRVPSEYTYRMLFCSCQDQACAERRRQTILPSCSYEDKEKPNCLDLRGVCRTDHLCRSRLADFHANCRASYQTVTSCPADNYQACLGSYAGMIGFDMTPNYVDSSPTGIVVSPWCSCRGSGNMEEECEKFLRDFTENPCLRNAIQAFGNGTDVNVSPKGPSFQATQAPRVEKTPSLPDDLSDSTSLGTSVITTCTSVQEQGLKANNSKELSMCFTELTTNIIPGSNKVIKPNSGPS
T2 sequence (P07949 29-1114): as the sequence (P07949 29-1114) above

CCN(CC)CCCC(C)Nc1cc(/C=C/c2ccccc2Cl)nc2cc(Cl)ccc12 (stereo not shown) [XIB4035, N4-{7-chloro-2-[(E)-2-(2-chloro-phenyl)-vinyl]-quinolin-4-yl}-N1,N1-diethyl-pentane-1,4-diamine]
c-fiber area (GFAP-DN-erbB4 mice; [2]): 1.64 ± 0.07 µm²
c-fibers/Remak bundle (GFAP-DN-erbB4 mice; [2]): 8.40 ± 0.83
degeneration of Remak bundles and C-fiber axons (GFAP-DN-erbB4 mice; cream 1.5 mM twice daily P21-P49, sciatic nerve EM): prevented the degeneration of Remak bundles and C-fiber axons
changes in appearance, food intake, skin health or other outward negative signs [1]: no changes
duration of ligand-induced RET phosphorylation after washout (RET; 20 μM XIB4035 with 2 nM GDNF or 1 nM ARTN, 10 minutes treatment): at least 120 minutes
induction of RET phosphorylation (RET; XIB4035 alone, various concentrations, two or 10 minutes): failed to induce RET phosphorylation
RET phosphorylation at 60 min (GFRα2/RET): detected
